# Laboratory results: US20120010229A1, “THERAPEUTIC REGIMENS FOR HEDGEHOG-ASSOCIATED CANCERS” (priority 2010, published 2012)
# What was measured:
# Gli1 = Gli1 mRNA by RT-PCR in Ptc^C/C tumors; type: in vivo, mouse; conditions: for suppression of Gli1 levels vs vehicle: daily 20 mg/kg/dose; for reduction in Gli1 mRNA levels: single dose
# Procedure: Pharmacodynamic activity of IPI-926 in Ptc^C/C tumors was confirmed by analysis of Gli1 mRNA by RT-PCR. Mice were treated daily with 20 mg/kg/dose IPI-926 for 2 days, 2 weeks or 6 weeks and tumor tissue isolated and snap frozen 24 hours after the last dose. Total RNA was extracted using the Qiagen RNeasy Plus Kit and converted to cDNA using the Taqman Reverse Transcription kit (ABI). Quantitative Real Time PCR was set up using Taqman Master Mix and run on the Applied Biosystems 7300HT Real-Time PCR (384-well qPCR) System. Taqman primers for mouse Gli1 and Gapdh controls were used (ABI). Data was analyzed using SDS2.3 software (ABI). All conditions were run in triplicate and normalized to mouse Gapdh controls. Expression of IPI-926 treated (n=3 per time point) samples were normalized to vehicle control (n=3 per time point) samples.
# In initial studies in the Ptc^C/C mice intracranial pressures were sufficiently high in some mice that brainstem herniation into the spinal canal and subsequent death occurred by tipping the head back for gavage feeding. Pharmacodynamic studies were conducted with intraperitoneal (IP) drug injection as well as oral gavage to see whether the IP route offered a safe and effective alternative to gavage drug administration. Both oral and IP routes induced approximately 90% reduction in Gli1 mRNA levels (FIG. 14), so IP administration was used for all subsequent studies.
# wild type human SMO = target: T1, wild type human SMO (Homo sapiens, UniProt Q99835); assay: Gli-luciferase reporter assay, C3H10T1/2 cells transfected with wild type SMO; type: cell-based, mouse
# T1 construct: host or cells: C3H10T1/2 cells (ATCC CCL-226), mouse
# Procedure: Wild type human SMO was subcloned into pcDNA3.1 from an expression construct in pCMV6 (Origene #SC122724). D473H SMO was then generated by site-directed mutagenesis using the Stratagene QuikChange kit (Agilent #200519) and sequence verified.
# Gli-Luciferase reporter assays were performed as described. (Yauch et al. (2009) Science 326: 572-574) Briefly, C3H10 T1/2 cells (ATCC, #CCL-226) were plated in six-well plates at 1×10 to 5th cells per well in BME (Gibco #21010) with 10% FBS (Hyclone #SH30070.03), 2 mM Glutamine (Gibco #25030) and 50 units penicillin/50 ug streptomycin (Gibco #15140). The next morning, cells were transfected with 400 ng SMO expression construct, 400 ng 8× Gli-Luc, and 200 ng pRL-TK per well with GeneJuice transfection reagent (Novagen #70967). Cells in each well were lifted six hours later and replated into four wells of a 12 well plate and allowed to attach overnight. Medium was then changed to low (0.5%) serum and compounds were added in quadruplicate in a range of concentrations. After a 48 hour incubation, firefly and renilla luciferase were assayed using the Promega Dual-Glo Luciferase Assay System (Promega #E2940) and ratios were used to determine percent of control using Prism graphing software.
# [1] = tested on: LuCaP35V (Castration Resistant) primary prostate cancer; assay: LuCaP35V castration resistant primary prostate cancer model; type: in vivo
# Description: The effects of IPI-926 were examined following docetaxel chemotherapy in a model of castration resistant prostate cancer. Prostate cancer is known to be a highly desmoplastic cancer, and one that preferentially metastasizes to bone. Sonic hedgehog ligand is expressed in clinical specimens and primary xenograft models. […] FIG. 7 summarizes the effects of IPI-926 in LuCaP35V (Castration Resistant) primary prostate cancer model. Days of docetaxel and IPI-926 administration are indicated by the arrowheads at the indicated days post-implant. The following samples were tested: Vehicle control (administered orally once a day), 40 mg/kg of IPI-926 (administered orally once a day), docetaxel (administered intravenously Q14D for 28 days), or docetaxel (administered intravenously Q14D for 28 days) followed by 40 mg/kg of IPI-926, as shown in FIG. 7. […] Thus, IPI-926 can be useful as maintenance therapy in prostate cancer.
# [2] = tested on: L3.6pl P-lucky liver metastasis; assay: L3.6pl liver metastasis model, Study #2; type: in vivo
# Procedure: Model Procedure: Animals were anesthetized and prepared for surgery. The animal's spleen was exposed and 100 μl (1 million cells) of the L3.6pl single cell suspension was injected directly in the spleen towards the splenic vein (intra splenic injection). Once the injection was complete, the splenic artery and splenic vein were ligated, the spleen was excised, and the animals' wounds were closed. Post-op care and analgesia was given for 4 consecutive days and animals were monitored for recovery.
# Prior to the procedure listed above 48 animals were separated into […].
# Animals in group 2 (Day-of-Treatment), received IPI-926 every-other-day beginning on the day of the intra splenic injection procedure, continuing until the study end.
# Animals in group 3 (Pre-Treatment Day −2), received IPI-926 every-other-day starting two days prior to the day of the intra splenic injection procedure, continuing until the study end.
# Animals in group 4 (Pre-Treatment Day −7), received IPI-926 every-other-day starting seven days prior to the day of the intra splenic injection procedure, continuing until the study end.
# Animals in group 5 (Pre-Treatment Day −14—treatment stopped on Day 0), received IPI-926 every-other-day starting fourteen days prior to the day of the intra splenic injection procedure and ending on the day of implant.
# Animals in group 6 (Pre-Treatment Day −14), received IPI-926 every-other-day starting fourteen days prior to the day of the intra splenic injection procedure, continuing until the study end.
# Results Procedure: Animals were injected with 10 ml/kg of luciferin concentrated at […] via I.P. injection. This luciferin binds to the L3.6pl P-Lucky cells injected on day 0. Utilizing Calipers Xenogen© machine, this cell-luciferin association emits bioluminescence that can be read and quantified.
# Results: FIGS. 12A-12B represent the results from the quantification, normalized on each day to the average of vehicle treated animals. This normalization was done using the formula: (1/(average flux of vehicle animals/average flux of group X (group being compared))).
# T1 sequence (Q99835 28-787): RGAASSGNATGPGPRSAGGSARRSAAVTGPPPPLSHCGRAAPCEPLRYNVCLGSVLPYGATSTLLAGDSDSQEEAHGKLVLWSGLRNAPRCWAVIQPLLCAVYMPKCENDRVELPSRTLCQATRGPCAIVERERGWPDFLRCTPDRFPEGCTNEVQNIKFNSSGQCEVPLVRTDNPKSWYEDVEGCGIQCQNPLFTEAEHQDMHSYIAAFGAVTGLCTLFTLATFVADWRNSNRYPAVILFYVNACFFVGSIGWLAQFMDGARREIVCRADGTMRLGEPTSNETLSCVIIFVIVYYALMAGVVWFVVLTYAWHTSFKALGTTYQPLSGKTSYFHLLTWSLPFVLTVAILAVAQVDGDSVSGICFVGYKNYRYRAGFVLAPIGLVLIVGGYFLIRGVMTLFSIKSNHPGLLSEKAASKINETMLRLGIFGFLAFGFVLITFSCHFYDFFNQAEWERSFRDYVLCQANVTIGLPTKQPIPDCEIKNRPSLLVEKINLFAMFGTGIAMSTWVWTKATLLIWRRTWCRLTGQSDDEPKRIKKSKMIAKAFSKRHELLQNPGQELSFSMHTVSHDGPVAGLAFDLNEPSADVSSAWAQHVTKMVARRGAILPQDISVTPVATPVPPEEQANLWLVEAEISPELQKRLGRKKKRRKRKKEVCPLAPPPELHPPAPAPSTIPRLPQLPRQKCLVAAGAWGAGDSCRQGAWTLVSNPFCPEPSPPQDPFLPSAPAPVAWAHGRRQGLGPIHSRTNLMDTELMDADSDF
compound,measurement,setting,value
CC1=C2C[C@H]3[C@@H](CC[C@@H]4C[C@H](NS(C)(=O)=O)CC[C@@]43C)[C@@H]2CC[C@@]2(C1)O[C@@H]1C[C@H](C)CN[C@H]1[C@H]2C [IPI-926],suppression of Gli1 levels vs vehicle,Gli1; after 2 weeks of therapy,60%
same,suppression of Gli1 levels vs vehicle,Gli1; after 6 weeks of therapy,30%
same,suppression of Gli1 levels vs vehicle,Gli1; after 2 days of therapy,90%
same,reduction in Gli1 mRNA levels,Gli1; intraperitoneal injection,approximately 90%
same,reduction in Gli1 mRNA levels,Gli1; oral gavage,approximately 90%
same,IC50,wild type human SMO,9 nM
same,"tumor volume, IPI-926 alone",[1]; 40 mg/kg orally once a day,marked increase in tumor volume
same,tumor volume after cessation of docetaxel chemotherapy,[1]; docetaxel IV Q14D for 28 days followed by 40 mg/kg IPI-926,prolonged duration of the tumor inhibition
same,take or growth of metastasis within the liver,[2]; 2 days of pre treatment,no effect
same,overall survival vs vehicle,[2]; 7 days of pre-treatment,survival benefit
same,overall survival vs vehicle,[2]; 14 days of pre-treatment then stopping,survival benefit
same,reduction in luminescence below vehicle,"[2]; 14 days prior to implant then stopping dosing, early time point",roughly 15 fold
same,decrease in bioluminescence compared to vehicle,"[2]; 14 days prior to implant then stopping dosing, latest time point",5 fold
same,take or growth of metastasis within the liver,[2]; day of implant treatment,no effect
same,overall survival vs vehicle,[2]; pre-treatment beginning at day -2,limited survival benefits
same,reduction in bioluminescence below vehicle,[2]; treatment from 7 days prior to implant,10-15 fold
same,"increase of overall survival rate, factor",[2]; treatment from 14 days prior to implant,≥ 2
same,reduction in flux (bioluminescence) below vehicle,"[2]; treatment from 14 days prior to implant, continued",20-25 fold
same,overall survival vs vehicle,"[2]; treatment starting on the day of implant, day 0",no benefit
